Here are results for four compounds from paper PMC3914206.

Experiment [1] deals with T1, panel of 442 kinases (Homo sapiens, UniProt Q15835).
T1 construct: purchased KINOMEscan
T1 sequence (Q15835 1-563): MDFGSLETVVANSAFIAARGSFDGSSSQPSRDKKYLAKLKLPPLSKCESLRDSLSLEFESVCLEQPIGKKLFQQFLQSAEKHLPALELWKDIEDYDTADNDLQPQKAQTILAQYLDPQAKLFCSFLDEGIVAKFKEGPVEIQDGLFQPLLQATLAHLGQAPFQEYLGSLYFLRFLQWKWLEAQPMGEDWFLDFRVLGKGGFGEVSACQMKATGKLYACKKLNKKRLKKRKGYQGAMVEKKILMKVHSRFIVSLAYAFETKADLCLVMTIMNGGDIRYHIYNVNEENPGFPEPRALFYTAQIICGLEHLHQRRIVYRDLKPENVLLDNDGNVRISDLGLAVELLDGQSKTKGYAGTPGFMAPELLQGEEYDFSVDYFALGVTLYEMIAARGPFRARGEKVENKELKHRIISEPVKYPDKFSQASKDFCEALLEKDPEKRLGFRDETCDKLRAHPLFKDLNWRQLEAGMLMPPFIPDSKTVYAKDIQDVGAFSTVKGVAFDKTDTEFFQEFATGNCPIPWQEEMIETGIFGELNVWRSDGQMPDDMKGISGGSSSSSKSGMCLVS
It counts as binding. The note with it: Compound Concentration 10 µM. The source says: (§1) We assessed the selectivity of members of this scaffold using the KINOMEscan methodology across a near comprehensive panel of 442 kinases [[18,27]].

Experiment [2] addresses T2, panel of 442 kinases (Homo sapiens, UniProt Q13153).
T2 construct: purchased KINOMEscan
The experiment is classed as binding. The settings on record: Compound Concentration 10 µM.
Source text: as §1

T2 sequence (Q13153 whole entry): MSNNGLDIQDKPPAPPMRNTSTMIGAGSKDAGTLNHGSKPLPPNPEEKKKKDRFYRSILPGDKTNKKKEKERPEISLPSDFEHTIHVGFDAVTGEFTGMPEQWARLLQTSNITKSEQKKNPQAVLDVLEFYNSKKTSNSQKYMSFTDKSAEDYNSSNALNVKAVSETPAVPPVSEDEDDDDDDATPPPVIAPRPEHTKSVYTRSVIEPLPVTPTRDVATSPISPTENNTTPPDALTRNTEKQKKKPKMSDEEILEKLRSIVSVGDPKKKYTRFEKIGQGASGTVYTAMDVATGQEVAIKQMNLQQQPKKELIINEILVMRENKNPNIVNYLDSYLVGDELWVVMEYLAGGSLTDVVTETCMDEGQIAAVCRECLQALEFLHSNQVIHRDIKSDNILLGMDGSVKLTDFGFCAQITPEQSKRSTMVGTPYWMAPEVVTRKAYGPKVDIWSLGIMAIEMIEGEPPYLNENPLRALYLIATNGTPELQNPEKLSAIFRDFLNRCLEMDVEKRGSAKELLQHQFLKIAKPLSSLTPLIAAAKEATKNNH

For the compound `COc1cc(C(=O)N2CCC(N3CCN(C)CC3)CC2)ccc1Nc1ncc2c(n1)N(C)c1ccccc1C(=O)N2C` [15 (LRRK2-IN-1)], at panel of 442 kinases [1], the “KINOMEscan: GRK1” value worked out at 91. For the same compound, the “KINOMEscan: PAK1” value on panel of 442 kinases [2] is given as 95.
`COc1cc(C(=O)N2CCC(N3CCN(C)CC3)CC2)ccc1Nc1ncc2c(n1)N1CCc3cccc(c31)C(=O)N2C` [Compound 24]: the “KINOMEscan: PAK1” value on panel of 442 kinases [2] was found to be 85.
On to `COc1cc(C(=O)N2CCC(N3CCN(C)CC3)CC2)ccc1Nc1ncc2c(n1)N(C1CCCC1)c1ccccc1C(=O)N2C` [Compound 25, 11-cyclopentyl-2-((2-methoxy-4-(4-(4-methylpiperazin-1-yl)piperidine-1-carbonyl)phenyl)amino)-5-methyl-5H-benzo[e]pyrimido[5,4-b][1,4]diazepin-6(11H)-one], for which the “KINOMEscan: GRK1” value on panel of 442 kinases [1] was 85. Moreover, at panel of 442 kinases [2], the “KINOMEscan: PAK1” value turned out to be 82.
The like results for `CCOc1cc(C(=O)N2CCC(N3CCN(C)CC3)CC2)ccc1Nc1ncc2c(n1)N(C1CCCC1)c1ccccc1C(=O)N2C` [Compound 26] were, in that order, 100 and 100.
